Reference: the supplement of paper PMC7455731

Experiment: collision cross section (DTIM-MS, N2); higher = larger ion
Experimental: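 Collision cross section (CCS) of drug and natural-product chemical standards (validation set 2, measured in this paper). Three independent measurements were made across 2 months; the value taken is their mean (avg_ccs), for the ion adduct given.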

Compound | collision cross section (ion adduct: [M-H]-) | collision cross section (ion adduct: [M+H]+)
C[C@H]1C(=O)O[C@@H]2CCN3CC=C(COC(=O)[C@](C)(O)[C@]1(C)O)[C@H]23 [Crotaline] | – | 176.34 Å²
Nc1nc(N)nc(NC2CC2)n1 [Cyromazine] | – | 135.92 Å²
CCCCCCCCOC(=O)c1ccccc1C(=O)OCCCCCCCC [DI-N-OCTYL PHTHALATE] | – | 211 Å²
CN(C)NC(=O)CCC(=O)O [Daminozide] | 135.88 Å² | –
CC(C)=CC(=O)OC1Cc2cc3ccc(=O)oc3cc2OC1(C)C (centres undefined) [Decursin] | 180.82 Å² | 185.63 Å²
COC1=CC(=O)O[C@@H](CCc2ccccc2)C1 [Dihydrokavain] | – | 149.11 Å²
Cc1ncc([N+](=O)[O-])n1C [Dimetridazole] | – | 127.62 Å²
C[C@H]1CC[C@]2(OC1)O[C@H]1C[C@H]3[C@@H]4CC=C5C[C@@H](O[C@@H]6O[C@H](CO)[C@@H](O[C@@H]7O[C@@H](C)[C@H](O)[C@@H](O)[C@H]7O)[C@H](O)[C@H]6O[C@@H]6O[C@@H](C)[C@H](O)[C@@H](O)[C@H]6O)CC[C@]5(C)[C@H]4CC[C@]3(C)[C@H]1[C@@H]2C [Dioscin] | 324.15 Å² | 330.49 Å²
C[C@H]1CC[C@]2(OC1)O[C@H]1C[C@H]3[C@@H]4CC=C5C[C@@H](O)CC[C@]5(C)[C@H]4CC[C@]3(C)[C@H]1[C@@H]2C [Diosgenin] | – | 209.65 Å²
COc1cc(O)ccc1/C=C/C(=O)c1ccc(O)cc1 [Echinatin] | 171.54 Å² | 167.45 Å²
C=CCc1cc(OC)c(OC)c(OC)c1 [Elemicin] | – | 144.76 Å²
Cc1cc(O)c2c(c1)C(=O)c1cc(O)cc(O)c1C2=O [Emodin] | 155.06 Å² | 156.69 Å²
CCOc1cc(NC(C)=O)ccc1C(=O)OC [Ethopabate] | 158.16 Å² | 151.13 Å²
CCOc1cc(C=O)ccc1O [Ethyl vanillin] | 133.69 Å² | –
Nc1[nH]c(=O)ncc1F [Fluorocytosine] | – | 119.97 Å²

Now from value to compound:

collision cross section (ion adduct: [M-H]-) | collision cross section (ion adduct: [M+H]+) | Compound
310.8 Å² | – | CC(/C=C/C=C(\C)C(=O)O[C@@H]1O[C@H](CO[C@@H]2O[C@H](CO)[C@@H](O)[C@H](O)[C@H]2O)[C@@H](O)[C@H](O)[C@H]1O)=C\C=C\C=C(C)\C=C\C=C(/C)C(=O)O[C@@H]1O[C@H](CO[C@@H]2O[C@H](CO)[C@@H](O)[C@H](O)[C@H]2O)[C@@H](O)[C@H](O)[C@H]1O [Crocin]
151.89 Å² | – | Nc1ccn([C@@H]2O[C@H](CO)[C@@H](O)[C@@H]2O)c(=O)n1 [Cytarabine]
259.6 Å² | 248.03 Å² | COc1cc2c(cc1OC)C(Cc1ccc(Oc3cc(CC4c5cc(OC)c(OC)cc5CCN4C)ccc3O)cc1)N(C)CC2 (centres undefined) [Dauricine]
198.36 Å² | 196.5 Å² | COc1cc2c(cc1OC)[C@@H]1C(=O)c3ccc4c(c3O[C@@H]1CO2)C=CC(C)(C)O4 [Deguelin]
– | 193.33 Å² | COc1cc(C=CC(=O)CC(=O)C=Cc2ccc(O)cc2)ccc1O [Demethoxycurcumin]
144.12 Å² | – | CCOC(=O)c1ccc(O)c(OC)c1 [Ethyl Vanillate]
– | 141.92 Å² | CCOC(=O)c1cc2ccccc2oc1=O [Ethyl coumarin-3-carboxylate]
– | 250.54 Å² | COc1cc([C@@H]2c3cc4c(cc3[C@@H](O[C@@H]3O[C@@H]5CO[C@@H](C)O[C@H]5[C@H](O)[C@H]3O)C3COC(=O)C32)OCO4)cc(OC)c1O (some centres undefined) [Etoposide]
184.75 Å² | 176.36 Å² | COc1ccc(C=CC(=O)c2c(O)cc(OC)cc2OC)cc1 [Flavokawain A]
160.69 Å² | 159.39 Å² | O=C(O)c1ccccc1Nc1cccc(C(F)(F)F)c1 [Flufenamic acid]
